Experimental data published in patent publication US6677141B2, “Edible compositions of Bacillus subtilis natto cells containing water-soluble vitamin K” (Honda Trading Corporation, priority 1998, dated 2004).

Legend:
[1] = MK-7 level in plasma after oral ingestion by healthy adults (HPLC); type: in vivo, human (healthy adults)
Description: The measurement of the amounts of MK-7, MK-4, and vitamin K1 by the high-performance liquid chromatography (HPLC) makes use of the phenomenon that vitamin K is reduced by a platinum-alumina catalyst into a hydroquinone compound and made to form a fluorescent substance. To be more specific, this measurement is carried out under the following conditions.
Then, five healthy adults were each caused to ingest 1 g of the dry cells at 10 o'clock every morning. After the elapse of a prescribed interval, blood was collected from each of the healthy adults and was tested for MK-7 level in the plasma. The time-course changes of MK-7 level in the plasma were investigated.
Five healthy adults were each caused to ingest 1 g of dry cells (containing 1.8×10^10 live cells) of Nitto strain (made by Nitto Yakuhin Kogyo K.K. in Kyoto) at 10 o'clock every morning. Then, blood was collected from the adults along the course of time. The plasma was separated from the collected blood and tested for MK-7 level in the plasma in the same manner as in Example 1.
As a control, five healthy adults were caused to ingest purified MK-7 in place of the dry cells of Bacillus subtilis natto mentioned above. The plasma similarly obtained from each of the healthy adults was tested for MK-7 level in the plasma.
The cultured product thus obtained was washed with distilled water and then freeze-dried. Five healthy adults (A to E) were each caused to ingest an enteric capsule in which 1 g of freeze-dried product (containing 5×10^11 cells/g of dried product) was filled. In this case, the MK-7 content was determined by the Soxhlet-HPLC method method, to find to be 708.0 μg/g of dried product. At prescribed points, blood was collected from the adults along the course of time. The plasma MK-7 level was tested in the same manner as in Example 1.
Five healthy adults (21 to 63 years old, male) requested to abstain from breakfast were each made to ingest 1,000 μg of the water-soluble vitamin K derivative containing the water-soluble MK-7 derivative prepared in Example 9 at 10 o'clock in the morning. Blood was collected from the healthy adults along the course of time after the ingestion and measured for the level of the water-soluble MK-7 derivative in plasma. As a control, the experiment was repeated with the ingestion of 1,000 μg of purified MK-7 instead.

[2] = Photostability: amount of MK-7 on exposure to the light from a fluorescent lamp; type: physicochemical; conditions: room temperature
Description: This dry MK-7 was exposed to the light from a fluorescent lamp at room temperature for 5 hours. In this case, the amount of MK-7 was measured along the course of time in the same manner as in Example 6. The results are shown in FIG. 7 (indicated by empty circle (◯) marks).
The fat-soluble MK-7 thus prepared was dried to obtain a dry product of MK-7. This dry product of MK-7 was irradiated with the light from a fluorescent lamp at room temperature for 5 hours and then tested for the fat-soluble MK-7 content in the same manner as in Example 6. The results are shown in FIG. 7 (indicated by filled square (▪) marks).

[3] = oral, 1 g dry cells (about 1.8 × 10^10 cells/g) or about 51.0 μg purified MK-7, average ± SD, n = 5

Row | Level in plasma on the 24th hour after the ingestion ([1]; Example 14, oral 1,000 μg) | Concentration of MK-7 in plasma (after the elapse of) 0 hour ([1]; before ingestion, oral, 1 g dry cells (about 1.8 × 10^10 cells/g) or about 51.0 μg purified MK-7, average ± standard deviation, n = 5) | Concentration of MK-7 in plasma (after the elapse of) 4 hours [1, 3] | Concentration of MK-7 in plasma (after the elapse of) 8 hours [1, 3] | Concentration of MK-7 in plasma (after the elapse of) 12 hours [1, 3] | Concentration of MK-7 in plasma (after the elapse of) 24 hours [1, 3] | Concentration of MK-7 in plasma (after the elapse of) 32 hours [1, 3] | Concentration of MK-7 in plasma (after the elapse of) 48 hours [1, 3] | Exposure time to the fluorescent lamp after which the amount of MK-7 could not be measured [2] | Compound
1 | 3.2 ± 2.3 ng/mL | 1.3 ± 1.1 | 11.2 ± 2.8 | 7.3 ± 1.6 | 4.3 ± 1.0 | 2.2 ± 1.0 | 1.4 ± 0.7 ^┘ | 1.4 ± 0.9 ^┘ |  | CC(C)=CCC/C(C)=C/CC/C(C)=C/CC/C(C)=C/CC/C(C)=C/CC/C(C)=C/CC/C(C)=C/CC1=C(C)C(=O)c2ccccc2C1=O [Purified MK-7, menaquinone-7]
2 |  |  |  |  |  |  |  |  | about 3 hours | CC(C)=CCC/C(C)=C/CC/C(C)=C/CC/C(C)=C/CC/C(C)=C/CC/C(C)=C/CC/C(C)=C/CC1=C(C)C(=O)c2ccccc2C1=O [fat-soluble MK-7]
